The conditions of the data set: Crystal; visual observation.

± gives the expanded uncertainty stated by the source.

For the compound `Nc1ccccc1I` [2-iodoaniline], the Triple point temperature is 325.7 ± 1.2 K.

`Nc1ccc(I)cc1` [4-iodoaniline]: the Triple point temperature is 332.35 ± 0.87 K.

The values are drawn from the NIST ThermoML archive (doi:10.1021/acs.jced.7b00840).
